One assay has as its system PR. The assay is described as follows: Uterine wet weight assay (PR agonist effectiveness). The class given is in vivo, Sprague-Dawely rats. An excerpt: J. Obstet. […] R.I. Dorfman, Academic Press, New York, New York, pp101-130 (1969), the disclosures of which are herein incorporated by reference. Four to five week old, ovariectomized, Sprague-Dawely rats (Harlan-Sprague-Dawely, Indianapolis, IN) were obtained 1 week after surgery and allowed to acclimate for an additional week after shipment.

A further assay addresses T1, MR (Homo sapiens, UniProt P08235).
T1 construct: expressed in transfected cells; host or cells: CV-1 cells, transient transfection
T1 sequence (P08235 1-984): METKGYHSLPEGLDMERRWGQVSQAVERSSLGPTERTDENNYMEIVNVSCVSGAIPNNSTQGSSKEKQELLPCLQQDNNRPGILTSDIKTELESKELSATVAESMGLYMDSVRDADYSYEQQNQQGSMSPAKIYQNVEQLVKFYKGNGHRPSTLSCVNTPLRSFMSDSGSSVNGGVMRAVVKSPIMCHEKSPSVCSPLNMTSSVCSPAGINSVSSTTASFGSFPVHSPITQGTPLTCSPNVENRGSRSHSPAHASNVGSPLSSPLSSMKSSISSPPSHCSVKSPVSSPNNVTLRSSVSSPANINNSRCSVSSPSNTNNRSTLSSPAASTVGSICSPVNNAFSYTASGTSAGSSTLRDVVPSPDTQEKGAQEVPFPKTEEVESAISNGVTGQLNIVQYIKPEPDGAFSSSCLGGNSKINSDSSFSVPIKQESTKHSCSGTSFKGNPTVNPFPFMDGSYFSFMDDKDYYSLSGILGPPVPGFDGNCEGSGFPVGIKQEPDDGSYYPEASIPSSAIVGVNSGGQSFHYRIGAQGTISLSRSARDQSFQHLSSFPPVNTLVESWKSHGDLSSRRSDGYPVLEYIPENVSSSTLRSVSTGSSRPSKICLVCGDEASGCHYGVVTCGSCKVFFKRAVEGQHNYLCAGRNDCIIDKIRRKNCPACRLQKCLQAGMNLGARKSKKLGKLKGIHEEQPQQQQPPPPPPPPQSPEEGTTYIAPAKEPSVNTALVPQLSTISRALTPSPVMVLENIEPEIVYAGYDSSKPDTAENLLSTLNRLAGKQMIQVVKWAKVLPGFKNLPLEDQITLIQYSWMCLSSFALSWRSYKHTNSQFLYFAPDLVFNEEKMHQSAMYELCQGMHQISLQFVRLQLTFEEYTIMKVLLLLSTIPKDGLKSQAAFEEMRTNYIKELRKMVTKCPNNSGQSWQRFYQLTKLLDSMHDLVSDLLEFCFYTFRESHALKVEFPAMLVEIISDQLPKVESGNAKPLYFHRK
The assay is described as follows: Co-transfection assay, MR antagonist activity. The class given is cell-based. The note with it: for Emax: CV-1, read-out: MR Antagonist CV-1 Cells Efficacy (%).

For another assay, the target named is T2, GR (Homo sapiens, UniProt P04150).
T2 construct: expressed in transfected cells; host or cells: CV-1 cells, transient transfection
T2 sequence (P04150 1-777): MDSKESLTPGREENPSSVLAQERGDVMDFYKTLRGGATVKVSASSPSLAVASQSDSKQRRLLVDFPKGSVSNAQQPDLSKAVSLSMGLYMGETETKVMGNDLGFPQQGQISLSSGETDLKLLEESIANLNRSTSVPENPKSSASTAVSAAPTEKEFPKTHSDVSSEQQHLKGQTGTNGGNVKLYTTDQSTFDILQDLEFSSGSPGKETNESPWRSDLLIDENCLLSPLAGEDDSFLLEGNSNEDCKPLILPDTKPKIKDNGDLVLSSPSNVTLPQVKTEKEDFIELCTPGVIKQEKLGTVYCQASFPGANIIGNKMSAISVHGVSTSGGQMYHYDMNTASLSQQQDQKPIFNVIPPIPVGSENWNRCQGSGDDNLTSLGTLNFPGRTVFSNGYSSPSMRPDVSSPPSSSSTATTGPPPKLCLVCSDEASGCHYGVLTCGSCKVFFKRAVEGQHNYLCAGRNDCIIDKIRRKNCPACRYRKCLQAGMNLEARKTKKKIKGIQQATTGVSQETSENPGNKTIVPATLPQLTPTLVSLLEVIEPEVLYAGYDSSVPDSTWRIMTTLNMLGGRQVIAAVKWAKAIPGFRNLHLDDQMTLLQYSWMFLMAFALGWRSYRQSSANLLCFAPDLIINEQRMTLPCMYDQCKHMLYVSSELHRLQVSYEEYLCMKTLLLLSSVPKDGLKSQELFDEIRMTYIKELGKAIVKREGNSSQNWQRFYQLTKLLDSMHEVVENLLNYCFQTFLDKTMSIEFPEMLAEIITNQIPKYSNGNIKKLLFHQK
Briefly: Co-transfection assay, GR antagonist activity. The note with it: for Emax: CV-1, read-out: GR Antagonist CV-1 Cells Efficacy (%). Format: cell-based.

In assay [1] the target is T3, human PR-B (Homo sapiens, UniProt P06401).
T3 construct: expressed in transfected cells; host or cells: CV-1 cells (African green monkey kidney fibroblasts), transient transfection
T3 sequence (P06401 1-933): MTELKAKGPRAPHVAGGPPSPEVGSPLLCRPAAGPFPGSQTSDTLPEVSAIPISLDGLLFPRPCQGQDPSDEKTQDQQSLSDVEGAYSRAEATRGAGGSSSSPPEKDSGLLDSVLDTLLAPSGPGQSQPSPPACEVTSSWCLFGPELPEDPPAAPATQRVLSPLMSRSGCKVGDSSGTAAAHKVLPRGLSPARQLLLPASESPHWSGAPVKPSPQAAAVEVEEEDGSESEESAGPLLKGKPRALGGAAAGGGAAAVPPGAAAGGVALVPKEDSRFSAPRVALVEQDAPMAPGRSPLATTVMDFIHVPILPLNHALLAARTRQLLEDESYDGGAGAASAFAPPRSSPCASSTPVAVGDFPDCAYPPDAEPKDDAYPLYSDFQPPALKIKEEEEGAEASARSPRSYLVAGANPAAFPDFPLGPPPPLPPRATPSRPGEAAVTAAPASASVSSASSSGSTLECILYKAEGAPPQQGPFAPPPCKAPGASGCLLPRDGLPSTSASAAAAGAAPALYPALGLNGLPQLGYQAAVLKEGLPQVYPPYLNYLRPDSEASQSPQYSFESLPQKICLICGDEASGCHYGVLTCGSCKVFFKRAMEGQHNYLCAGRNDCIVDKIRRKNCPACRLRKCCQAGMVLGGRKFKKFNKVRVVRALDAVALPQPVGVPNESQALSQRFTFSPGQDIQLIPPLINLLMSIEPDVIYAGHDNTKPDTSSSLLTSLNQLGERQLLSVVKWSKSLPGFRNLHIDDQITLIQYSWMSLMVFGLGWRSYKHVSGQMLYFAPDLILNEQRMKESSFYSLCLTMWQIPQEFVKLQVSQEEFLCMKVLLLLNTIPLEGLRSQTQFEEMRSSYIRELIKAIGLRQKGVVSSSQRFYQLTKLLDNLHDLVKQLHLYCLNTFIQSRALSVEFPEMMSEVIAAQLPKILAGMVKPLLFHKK
Briefly: Co-transfection assay, PR agonist activity.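 As to all read-outs here: CV-1 cells (African green monkey kidney) co-transfected with receptor plasmid and hormone-responsive firefly luciferase reporter, agonism read as compound-dependent rise in luciferase signal.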 Format: cell-based. The note with it: for Emax: CV-1, read-out: PR Agonist CV-1 Cells Efficacy (%).

The target of the next assay is T4, AR (Homo sapiens, UniProt P10275).
T4 construct: expressed in transfected cells; host or cells: CV-1 cells, transient transfection
T4 sequence (P10275 whole entry): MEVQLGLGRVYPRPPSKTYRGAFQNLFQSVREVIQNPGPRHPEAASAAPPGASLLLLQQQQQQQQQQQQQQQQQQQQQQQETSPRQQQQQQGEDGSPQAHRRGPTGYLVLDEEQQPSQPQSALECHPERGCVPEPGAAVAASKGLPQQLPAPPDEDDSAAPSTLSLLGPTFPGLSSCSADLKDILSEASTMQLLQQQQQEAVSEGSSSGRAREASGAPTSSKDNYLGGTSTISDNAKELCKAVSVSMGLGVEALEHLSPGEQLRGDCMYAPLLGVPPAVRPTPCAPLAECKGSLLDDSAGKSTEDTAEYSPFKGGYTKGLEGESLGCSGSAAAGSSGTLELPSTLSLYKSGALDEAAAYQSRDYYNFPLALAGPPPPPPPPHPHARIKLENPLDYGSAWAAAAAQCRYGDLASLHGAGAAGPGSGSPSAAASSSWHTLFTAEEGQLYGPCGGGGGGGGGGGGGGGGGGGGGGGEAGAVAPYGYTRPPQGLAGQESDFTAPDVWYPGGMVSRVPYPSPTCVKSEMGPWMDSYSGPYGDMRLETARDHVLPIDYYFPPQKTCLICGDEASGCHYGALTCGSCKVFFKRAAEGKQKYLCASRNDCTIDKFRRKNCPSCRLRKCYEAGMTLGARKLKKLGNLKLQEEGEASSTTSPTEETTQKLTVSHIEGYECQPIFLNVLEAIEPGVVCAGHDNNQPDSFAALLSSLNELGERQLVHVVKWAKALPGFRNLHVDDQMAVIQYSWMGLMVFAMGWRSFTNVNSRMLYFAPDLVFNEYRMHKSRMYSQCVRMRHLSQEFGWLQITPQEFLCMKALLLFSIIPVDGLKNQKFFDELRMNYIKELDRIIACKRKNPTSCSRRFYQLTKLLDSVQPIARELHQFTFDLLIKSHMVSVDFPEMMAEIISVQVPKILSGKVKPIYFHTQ
Briefly: Co-transfection assay, AR antagonist activity. The class given is cell-based.

The target of assay [2] is T5, ER (Homo sapiens, UniProt P03372).
T5 construct: expressed in transfected cells; host or cells: CV-1 cells, transient transfection, with MTV-ERE5-LUC reporter
T5 sequence (P03372 whole entry): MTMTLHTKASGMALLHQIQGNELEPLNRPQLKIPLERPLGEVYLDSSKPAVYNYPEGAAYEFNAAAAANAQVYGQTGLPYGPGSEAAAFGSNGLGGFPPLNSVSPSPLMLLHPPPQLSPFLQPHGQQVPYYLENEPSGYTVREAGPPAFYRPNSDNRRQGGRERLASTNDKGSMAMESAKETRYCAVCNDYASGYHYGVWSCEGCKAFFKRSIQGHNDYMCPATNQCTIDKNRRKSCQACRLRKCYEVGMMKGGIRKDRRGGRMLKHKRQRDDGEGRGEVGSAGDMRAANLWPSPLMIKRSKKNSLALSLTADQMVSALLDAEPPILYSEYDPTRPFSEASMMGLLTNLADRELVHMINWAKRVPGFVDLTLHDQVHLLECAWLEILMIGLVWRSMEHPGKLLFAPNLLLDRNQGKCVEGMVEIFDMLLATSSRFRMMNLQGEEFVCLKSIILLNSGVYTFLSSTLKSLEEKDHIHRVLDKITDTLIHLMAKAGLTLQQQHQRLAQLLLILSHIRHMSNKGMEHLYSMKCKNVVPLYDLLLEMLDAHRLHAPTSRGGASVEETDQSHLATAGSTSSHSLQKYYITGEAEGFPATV
The assay is described as follows: Co-transfection assay, ER agonist activity. To be noted: for Emax: CV-1, read-out: ER Agonist CV-1 Cells Efficacy (%). Format: cell-based.

The target in assay [3] is T5, ER. The assay is described as follows: Co-transfection assay, ER antagonist activity. Format: cell-based. To be noted: for ER Antagonist CV-1 Cells Efficacy (%): percent maximal inhibition, estradiol at its EC50.
Assay [4] deals with T3, human PR-B. Briefly: Co-transfection assay, PR antagonist activity.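 As to all read-outs here: monkey kidney fibroblasts co-transfected with receptor expression plasmid and hormone-responsive luciferase reporter, antagonism read as reduced luciferase signal.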 To be noted: for Emax: CV-1, read-out: PR Antagonist CV-1 Cells Efficacy (%). The class given is cell-based.

Read-outs that look alike come from different tables or passages of the source.

As for `C[C@]12CC[C@@H]3c4ccc(O)cc4CC[C@H]3[C@@H]1CCC2=O` [estrone, reference compound], the “Mean Uterine Wet Weight” value in the assay with PR (estrone 10 µg/day subcutaneous alone, three days, ovariectomized rats) is on record as 205 mg. Also, in the assay with PR (estrone alone), the “increase of uterine wet weight over control treated animals” value was 4 fold.
With `CC(=O)S[C@@H]1CC2=CC(=O)CC[C@]2(C)[C@H]2CC[C@@]3(C)[C@@H](CC[C@@]34CCC(=O)O4)[C@H]12` [Spir, 7-alpha-[acetylthio]-17-alpha-hydroxy-3-oxopregn-4-ene-21-carboxylic acid gamma-lactone, reference compound], the Emax on MR was determined as 96%; at GR, 80%.
For `CC1=CC(C)(C)Nc2ccc3c(c21)C(c1ccc(C)cc1)Oc1ccccc1-3` (racemic) [Compound 167, (R/S)-1,2-Dihydro-2,2,4-trimethyl-5-(4-methylphenyl)-5H-chromeno[3,4-f]quinoline], the Emax was found to be 61% on MR and 96% on GR.
For `C=C1CC(C)(C)Nc2ccc3c(c21)C(c1cccc(F)c1)Oc1ccccc1-3` (racemic) [Compound 192, (R/S)-5-(3-Fluorophenyl)-1,2,3,4-tetrahydro-2,2-dimethyl-4-methylidene-5H-chromeno[3,4-f]quinoline], the EC50 on human PR-B [1] and at ER [2] was over 10000 nM in each case. Further, the IC50 against AR worked out at 79 nM; on ER [3], 195 nM; on human PR-B [4], 89 nM. The Emax was under 20% on ER [2], 70% at MR and 81% on GR. The “ER Antagonist CV-1 Cells Efficacy (%)” value on ER [3] is 80%.
Take `CC1=CC(C)(C)Nc2ccc3c(c21)C(c1ccsc1)Oc1ccccc1-3` (racemic) [Compound 170, (R/S)-1,2-Dihydro-2,2,4-trimethyl-5-(thiophen-3-yl)-5H-chromeno[3,4-f]quinoline]: the EC50 on human PR-B [1] amounted to 73 nM. Also, the values for the IC50 against AR, against ER [3] and at human PR-B [4] were 290 nM, 580 nM and 145 nM, respectively. Moreover, the “ER Antagonist CV-1 Cells Efficacy (%)” value at ER [3] is recorded as 78%. In addition, the Emax on MR is 84%; at GR, 94%.
Turning to `CCCCN(C)C(=O)CCCCCCCCCC[C@@H]1Cc2cc(O)ccc2[C@H]2CC[C@]3(C)[C@@H](O)CC[C@H]3[C@H]12` [ICI 164, N-butyl-3,17-dihydroxy-N-methyl-(7-alpha, 17-beta)-estra-1,3,5(10)-triene-7-undecanamide, reference compound], the Emax on ER [2] is under 20%. In addition, the “ER Antagonist CV-1 Cells Efficacy (%)” value at ER [3] is on record as 99%.
On to `CC(=O)O[C@]1(C(C)=O)CC[C@H]2[C@@H]3C[C@H](C)C4=CC(=O)CC[C@]4(C)[C@H]3CC[C@@]21C` [MPA, medroxyprogesterone acetate, reference compound], for which the “effect on uterine wet weight” value in the assay with PR (co-administered with estrone, doses of 0.3 mg, 1.0 mg, and 3.0 mg/rat) was “significantly decreased the uterine wet weight”.
Turning to “8-Fluoro-1,2-dihydro-2,2,4-trimethylindeno[1,2-g]quinoline [Compound 124]”, the EC50 at ER [2] (Table 5 overall potency, co-transfection assay, read-out: ER Potency Agon) was 2100 nM. Besides, the IC50 at ER [3] (Table 5 overall potency, co-transfection assay, read-out: ER Potency Antag) was over 10000 nM; at MR (Table 5 overall potency, co-transfection assay, read-out: MR Potency Antag), over 10000 nM; on GR (Table 5 overall potency, co-transfection assay, read-out: GR Potency Antag), over 10000 nM.
`CC1=CC(C)(C)Nc2ccc3c(c21)C(c1ccccc1)Oc1ccccc1-3` (racemic) [Compound 161, (R/S)-1,2-Dihydro-2,2,4-trimethyl-5-phenyl-5H-chromeno[3,4-f]quinoline]: the Emax on human PR-B [1] amounted to 47%; at MR it was 58%; on GR, 97%; on human PR-B [4] it was 75%.
For the molecule `CC#C[C@]1(O)CC[C@H]2[C@@H]3CCC4=CC(=O)CCC4=C3[C@@H](c3ccc(N(C)C)cc3)C[C@@]21C` [RU486, (11beta, 17beta)-11-[4-(dimethylamino)phenyl]-17-hydroxy-17-(1-propynyl)estra-4,9-dien-3-one, reference compound], the Emax is under 20% on human PR-B [1], 77% on MR and 100% on GR.
Molecule `CC(C)(O)C(=O)Nc1ccc([N+](=O)[O-])c(C(F)(F)F)c1` [Flut] returned an EC50 at ER [2] of over 10000 nM. The same molecule returned an IC50 on ER [3] of over 10000 nM.
Take `CC1=CC(C)(C)Nc2ccc3c(c21)C(c1cccc(C(F)(F)F)c1)Oc1ccccc1-3` (racemic) [Compound 195, (R/S) 1,2-Dihydro-2,2,4-trimethyl-5-[3-(trifluoromethyl)phenyl]-5H-chromeno[3,4-f]quinoline]: the Emax is 89% on human PR-B [1]; 90% on ER [2]; 47% at MR; 96% on GR; under 20% at human PR-B [4]. Besides, the IC50 is 470 nM at AR and 4410 nM on ER [3]. Further, the “ER Antagonist CV-1 Cells Efficacy (%)” value on ER [3] is reported as 68%.

These data come from patent EP1382597A2, “Steroid receptor modulator compounds and methods” (LIGAND PHARMACEUTICALS, INC., priority 1994, dated 1996).
